Patent publication US5478848A (priority 1994, dated 1995)
Where two headings read alike, the source gives them in different places.

What was measured:
[1] = Inhibition of arthritis in the adjuvant-induced arthritis model in the Lewis rat; assay type: in vivo; conditions: for ED50: Rattus norvegicus, ip, 384 h; for Potency compared with indomethacin: i.p., adjuvant arthritis model
Source text: One similarity is the sensitivity to certain therapeutic treatments known to be active in humans. Also, therapeutic doses in humans are similar to therapeutic doses in the adjuvant arthritis model. Examples include NSAIDs, steroids, methotrexate, immunosuppressive drugs, such as cyclosporin, and cytotoxic drugs, such as cyclophosphamide and allopurinol. Jeurissen et. al., Arthritis and Rheumatism 34, 961-972 (1991); Yocum et. al., Annals of Internal Medicine 109, 863-869 (1988); Rau, et. al., Arthritis and Rheumatism 34, 1236-1244 (1991); Otterness and Bliven, supra; Ward, Am. J. Med. Medicine. pp. 3-9 (Jul. 13, 1984).
Lewis rats were given a 0.1 ml injection of adjuvant (1 mg/animal) into the base of the tail on day 0. Swelling of the feet and ankles was first noted on days 10-12. Maximal swelling was observed on days 16-20. The cell infiltrate of the chronic inflammatory responses is predominantly mononuclear (indicating the presence of cell-mediated immunity). Animals were observed daily, and ankle diameter was measured in millimeters on days 12 and 16 using a hand-held dial micrometer. The degree of swelling was assessed by calculating the mean difference between day 16 and day 0 ankle diameter. The results are expressed as the percent inhibition of the increase in ankle diameter on day 16. At this point the animals were sacrificed and tissues were taken for histologic evaluation.
Animals were administered test drugs, suspended in 5% polyethylene glycol and 0.5% Tween-80 in phosphate buffered saline (p.o. or i.p.) once each day from day 1 to day 16.

[2] = cited from earlier work
L-type Ca2+ channels = conditions: fibroblasts, macrophage/monocyte-like cells, Kuppfer cells; cited from earlier work
[3] = Inhibition of arthritis in the passive transfer model; assay type: in vivo, Lewis rat
Protocol: Another arthritis model often used is the passive transfer model. In the passive transfer model of adjuvant arthritis, spleen cells are harvested from animals 12-14 days after the animals have been injected with adjuvant, cultured 24 hours in vitro with the T-cell mitogen, concanavaLin A, and injected into naive rats. Within 14-20 days, arthritis develops in the paws. […] Otterness and Bliven, supra.
Nimodipine was also tested for its ability to inhibit arthritis in the passive-transfer model. Otterness and Bliven, supra.
Spleens were harvested from naive rats or from rats 9-12 days after sensitization with complete Freund's adjuvant. Single cell suspensions from spleen were prepared and cells were cultured for 24 hours with the T cell mitogen, concanavalin A. Spleen cells were harvested and injected, i.v., into naive animals. Ankle diameters were determined 14-18 days after injection of spleen cells from naive or sensitized animals into naive animals. Animals were administered nimodipine at 10 mg/kg/day, i.p., suspended in 5% polyethylene glycol and 0.5% Tween-80 in phosphate-buffered saline.

[4] = cited from earlier work; remark: listed apart in the source

In the case of `COC(=O)C1=C(C)NC(C)=C(C(=O)OCC(C)C)C1c1ccccc1[N+](=O)[O-]` (stereo not shown) [nisoldipine], the ED50 ([1]; i.p. dosage, once each day from day 1 to day 16, increase in ankle diameter on day 16, read-out: ED50) is reported as under 1 mg/kg and the “Potency compared with indomethacin” value [1] is reported as “comparable in potency to indomethacin”.

In the case of `CC1=C(CC(=O)O)c2cc(F)ccc2/C1=C\c1ccc([S+](C)[O-])cc1` (stereo not shown) [sulindac], the “Potency relative to indomethacin” value ([2]; human, in vivo) is given as “only half as potent as indomethacin” and the Toxic side effects ([2]; human, in vivo) is given as “has toxic side effects of its own”.

In the case of `COC(=O)C1=C(C)NC(C)=C(C(=O)OC)C1c1ccccc1[N+](=O)[O-]` [nifedipine], the ED50 [1] is reported as 11 mg/kg.

For `COC(=O)C1=C(C)NC(C)=C([N+](=O)[O-])C1c1ccccc1C(F)(F)F` (stereo not shown) [Bay K 8644], the “Entry of Ca2+ into non-excitable cells” value (L-type Ca2+ channels) is given as “stimulated”.

For `CN(Cc1cnc2nc(N)nc(N)c2n1)c1ccc(C(=O)N[C@@H](CCC(=O)O)C(=O)O)cc1` [methotrexate], the “Progressive dose-related hepatic changes” value ([2]; extended periods of treatment, correlates with ethanol ingestion) is given as “progressive dose-related hepatic changes” and the “Hepatic effects in patients treated for rheumatoid arthritis” value ([2]; human, in vivo) is given as “Hepatic fibrosis and cirrhosis have been reported”.

In the case of `COc1ccc2c(c1)c(CC(=O)O)c(C)n2C(=O)c1ccc(Cl)cc1` [indomethacin], the ED50 [1] is listed as 3 ± 1 mg/kg, the “Patients experiencing untoward side effects” value ([2]; human, in vivo) is listed as 35-50% and the “Patients forced to discontinue use” value ([2]; human, in vivo) is listed as “about 20%”. The “Ulceration of the upper gastrointestinal tract / gastrointestinal bleeding” value ([2]; therapeutic doses used in rheumatoid arthritis) was “ulceration of the upper gastrointestinal tract leading to gastrointestinal bleeding is common”.

With `COc1ccc(CCN(C)CCCC(C#N)(c2ccc(OC)c(OC)c2)C(C)C)cc1OC` (stereo not shown) [verapamil] the ED50 [1] was 10 mg/kg.

In the case of `COCCOC(=O)C1=C(C)NC(C)=C(C(=O)OC(C)C)C1c1cccc([N+](=O)[O-])c1` (stereo not shown) [nimodipine], the ED50 [1] is reported as 4 mg/kg, the “Potency compared with indomethacin” value [1] is reported as “comparable in potency to indomethacin” and the “Inhibition of arthritis in the passive transfer model” value ([3]; 10 mg antagonist/kg body weight/day) is reported as “completely inhibited arthritis”. For the same molecule, the “Increase in paw diameter” value ([3]; sensitized T cells, 10 mg/kg/day, i.p., 14-18 days after injection of spleen cells) was 0.2 ± 0.05 mm, the Gastrointestinal irritation ([4]; acute, sub-acute and chronic exposure, even at supra-therapeutic concentrations, NDA applications) was “have not revealed any gastrointestinal irritation” and the Gastrointestinal toxicity ([4]; expected therapeutic dose in rheumatoid arthritis, prolonged periods of treatment) was “no gastrointestinal toxicity has been observed”.
